Laboratory results published in PMC11289882, “Site-directed allostery perturbation to probe the negative regulation of hypoxia inducible factor-1α” (RSC Chemical Biology, 2024).
Where two headings read alike, the source gives them in different places. Non-standard residues stand in square brackets, D forms with d. Residues, ends and D or L forms follow the SMILES beside them. β3hE = N[C@@H](CCC(=O)O)CC(=O)O; β3hL = CC(C)C[C@H](N)CC(=O)O; β3hD = NC(CC(=O)O)CC(=O)O; β3hS = N[C@@H](CO)CC(=O)O

Tests used:
[1] = biological target: T1, p300_330–420 (TAZ1 domain) (Homo sapiens, UniProt Q09472); assay: ITC direct titration to p300; type: binding; conditions: 5 µM p300_330–420 in cell, 60 µM ligand in syringe, 35 °C, 40 mM Na-phosphate pH 7.5, 100 mM NaCl, 1 mM DTT, global fit with ternary intermediate model, 68% confidence intervals in brackets, read-out: Direct binding to p300, K d
T1 construct: from residues 330-420 (used for FA and ITC experiments); GST (N, cleaved yes); made in house; host or cells: E. coli BL21 pLysS (pGEX-4T-1)

p300–Flu-HIF-1α = biological target: T2, p300–Flu-HIF-1α (Homo sapiens, UniProt Q09472); assay: Fluorescence anisotropy competition against p300–Flu-HIF-1α; type: binding
T2 construct: from residues 330-420 (used for FA and ITC experiments); GST (N, cleaved yes); made in house; host or cells: p300: E. coli BL21 pLysS (pGEX-4T-1); tracer peptide: solid-phase synthesis

[2] = 50 nM p300_330–420, 25 nM Flu-HIF-1α786–826 tracer, 40 mM Na-phosphate, 100 mM NaCl, 1 mM DTT, 0.01% Triton-X, pH 7.4, 10 min at 35 °C, fixed KD = 64 nM for tracer, three repeats, read-out: Kd,app FA competition against p300–Flu-HIF-1α

T2 sequence (Q09472 330-420): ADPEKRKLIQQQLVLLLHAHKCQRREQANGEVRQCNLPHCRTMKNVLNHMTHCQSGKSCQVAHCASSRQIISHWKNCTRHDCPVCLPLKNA
T1 sequence (Q09472 330-420): as above

Compound	Kd [1]	Kd (p300–Flu-HIF-1α; [2])	Kd (p300–Flu-HIF-1α; determined by FA competition with HIF-1α776–826 as competitor (competitor KD 50 ± 8 nM from ITC), 50 nM p300, 25 nM tracer, 35 °C, read-out: KD of the fluorescent tracer for p300)	Kd (p300–Flu-HIF-1α; as other FA competition values, average and standard deviation of two individual titrations (Fig. 2 and Fig. S11), SD, read-out: Kd,app FA competition against p300–Flu-HIF-1α)
CC[C@H](C)[C@H](NC(C)=O)C(=O)N[C@@H](CC(=O)O)CC(=O)N[C@H](C(=O)N[C@@H](CC(=O)O)CC(=O)N[C@@H](Cc1ccccc1)C(=O)N[C@H](C(=O)N[C@@H](CC(=O)O)CC(=O)N[C@@H](CCC(=O)O)C(=O)N[C@@H](CCC(=O)O)C(=O)N[C@H](C(=O)N[C@@H](CC(C)C)C(=O)N[C@@H](CCSC)C(=O)N[C@@H](CO)C(=O)N[C@@H](CC(C)C)C(=O)N[C@H](C(=O)N[C@H](C(=O)N[C@@H](CCC(=O)O)C(=O)N[C@@H](CCSC)C(=O)NCC(=O)N[C@@H](CC(C)C)C(=O)N[C@@H](CC(=O)O)C(=O)N[C@@H](CCCNC(=N)N)C(=O)N[C@H](C(=O)N[C@@H](CCCCN)C(=O)N[C@@H](CCC(=O)O)C(=O)N[C@@H](CC(C)C)C(=O)N1CCC[C@H]1C(=O)N[C@@H](CCC(=O)O)C(=O)N[C@@H](CC(C)C)C(=O)N[C@@H](Cc1c[nH]c2ccccc12)C(=O)N[C@@H](CC(C)C)C(=O)NCC(=O)N[C@@H](CCC(N)=O)C(=O)N[C@@H](CC(N)=O)C(=O)N[C@@H](CCC(=O)O)C(=O)N[C@@H](Cc1ccccc1)C(=O)N[C@@H](CC(=O)O)C(=O)N[C@@H](Cc1ccccc1)C(=O)N[C@@H](CCSC)C(N)=O)[C@@H](C)CC)[C@@H](C)CC)C(C)C)C(C)C)[C@@H](C)CC)[C@@H](C)O [compound 1] (Ac-I[β3hD]T[β3hD]FI[β3hD]EEVLMSLVIEMGLDRIKELPELWLGQNEFDFM-NH2)	0.019 µM	0.0096 ± 0.0024 µM	–	–
CC[C@H](C)[C@H](NC(C)=O)C(=O)N[C@@H](CC(=O)O)C(=O)N[C@H](C(=O)N[C@@H](CC(=O)O)C(=O)N[C@@H](Cc1ccccc1)C(=O)N[C@H](C(=O)N[C@@H](CC(=O)O)C(=O)N[C@@H](CCC(=O)O)C(=O)N[C@@H](CCC(=O)O)C(=O)N[C@H](C(=O)N[C@@H](CC(C)C)C(=O)N[C@@H](CCSC)C(=O)N[C@@H](CO)C(=O)N[C@@H](CC(C)C)C(=O)N[C@H](C(=O)N[C@H](C(=O)N[C@@H](CCC(=O)O)C(=O)N[C@@H](CCSC)C(=O)NCC(=O)N[C@@H](CC(C)C)C(=O)N[C@@H](CC(=O)O)CC(=O)N[C@H](C(=O)N[C@@H](CCC(=O)O)CC(=O)N[C@@H](CC(C)C)C(=O)N1CCC[C@H]1C(=O)N[C@@H](CCC(=O)O)C(=O)N[C@@H](CC(C)C)C(=O)N[C@@H](Cc1c[nH]c2ccccc12)C(=O)N[C@@H](CC(C)C)C(=O)NCC(=O)N[C@@H](CCC(N)=O)C(=O)N[C@@H](CC(N)=O)C(=O)N[C@@H](CCC(=O)O)C(=O)N[C@@H](Cc1ccccc1)C(=O)N[C@@H](CC(=O)O)C(=O)N[C@@H](Cc1ccccc1)C(=O)N[C@@H](CCSC)C(N)=O)[C@@H](C)CC)[C@@H](C)CC)C(C)C)C(C)C)[C@@H](C)CC)[C@@H](C)O [3c] (Ac-IDTDFIDEEVLMSLVIEMGL[β3hD]I[β3hE]LPELWLGQNEFDFM-NH2)	0.029 µM	0.076 ± 0.006 µM	–	–
CC[C@H](C)[C@H](NC(C)=O)C(=O)N[C@@H](CC(=O)O)C(=O)N[C@H](C(=O)N[C@@H](CC(=O)O)C(=O)N[C@@H](Cc1ccccc1)C(=O)N[C@H](C(=O)N[C@@H](CC(=O)O)C(=O)N[C@@H](CCC(=O)O)C(=O)N[C@@H](CCC(=O)O)C(=O)N[C@H](C(=O)N[C@@H](CC(C)C)C(=O)N[C@@H](CCSC)C(=O)N[C@@H](CO)C(=O)N[C@@H](CC(C)C)C(=O)N[C@H](C(=O)N[C@H](C(=O)N[C@@H](CCC(=O)O)C(=O)N[C@@H](CCSC)C(=O)NCC(=O)N[C@@H](CC(C)C)C(=O)N[C@@H](CC(=O)O)CC(=O)N[C@@H](CCCNC(=N)N)C(=O)N[C@H](C(=O)N[C@@H](CCC(=O)O)CC(=O)N[C@@H](CC(C)C)C(=O)N1CCC[C@H]1C(=O)N[C@@H](CCC(=O)O)C(=O)N[C@@H](CC(C)C)C(=O)N[C@@H](Cc1c[nH]c2ccccc12)C(=O)N[C@H](CC(=O)NCC(=O)N[C@@H](CCC(N)=O)C(=O)N[C@@H](CC(N)=O)C(=O)N[C@@H](CCC(=O)O)C(=O)N[C@@H](Cc1ccccc1)C(=O)N[C@@H](CC(=O)O)C(=O)N[C@@H](Cc1ccccc1)C(=O)N[C@@H](CCSC)C(N)=O)CC(C)C)[C@@H](C)CC)[C@@H](C)CC)C(C)C)C(C)C)[C@@H](C)CC)[C@@H](C)O [3b] (Ac-IDTDFIDEEVLMSLVIEMGL[β3hD]RI[β3hE]LPELW[β3hL]GQNEFDFM-NH2)	0.098 µM	0.112 ± 0.013 µM	–	–
CC[C@H](C)[C@H](NC(=O)[C@@H]1CCCN1C(=O)[C@H](C)NC(=O)[C@H](CC(N)=O)NC(=O)[C@@H](NC(=O)[C@H](CCC(=O)O)NC(=O)[C@H](CS)NC(=O)[C@H](CC(=O)O)NC(=O)[C@H](Cc1ccc(O)cc1)NC(=O)[C@H](CO)NC(=O)[C@@H](NC(=O)[C@H](CC(C)C)NC(=O)[C@H](CCC(N)=O)NC(=O)[C@@H]1CCCN1C(=O)[C@H](CC(C)C)NC(=O)CNC(=O)[C@H](CO)NC(=O)[C@H](CCC(=O)O)NC(=O)[C@H](CC(=O)O)NC(=O)[C@H](CCSC)NC(=O)[C@H](CO)NC(=O)CCCCCNC(=O)c1ccc2c(c1)C(=O)OC21c2ccc(O)cc2Oc2cc(O)ccc21)[C@@H](C)O)C(C)C)C(=O)N[C@@H](CCC(N)=O)C(=O)NCC(=O)N[C@@H](CO)C(=O)N[C@@H](CCCNC(=N)N)C(=O)N[C@@H](CC(N)=O)C(=O)N[C@@H](CC(C)C)C(=O)N[C@@H](CC(C)C)C(=O)N[C@@H](CCC(N)=O)C(=O)NCC(=O)N[C@@H](CCC(=O)O)C(=O)N[C@@H](CCC(=O)O)C(=O)N[C@@H](CC(C)C)C(=O)N[C@@H](CC(C)C)C(=O)N[C@@H](CCCNC(=N)N)C(=O)N[C@@H](C)C(=O)N[C@@H](CC(C)C)C(=O)N[C@@H](CC(=O)O)C(=O)N[C@@H](CCC(N)=O)C(=O)N[C@H](C(=O)N[C@@H](CC(N)=O)C(N)=O)C(C)C [Flu-HIF-1α]	–	–	0.064 µM	–
CC[C@H](C)[C@H](NC(C)=O)C(=O)N[C@@H](CC(=O)O)C(=O)N[C@H](C(=O)N[C@@H](CC(=O)O)C(=O)N[C@@H](Cc1ccccc1)C(=O)N[C@H](C(=O)N[C@@H](CC(=O)O)C(=O)N[C@@H](CCC(=O)O)C(=O)N[C@@H](CCC(=O)O)C(=O)N[C@H](C(=O)N[C@@H](CC(C)C)C(=O)N[C@@H](CCSC)C(=O)N[C@@H](CO)C(=O)N[C@@H](CC(C)C)C(=O)N[C@H](C(=O)N[C@H](C(=O)N[C@@H](CCC(=O)O)C(=O)N[C@@H](CCSC)C(=O)NCC(=O)N[C@@H](CC(C)C)C(=O)N[C@@H](CC(=O)O)CC(=O)N[C@@H](CCCNC(=N)N)C(=O)N[C@H](C(=O)N[C@@H](CCCCN)C(=O)N[C@@H](CCC(=O)O)CC(=O)N[C@@H](CC(C)C)C(=O)N1CCC[C@H]1C(=O)N[C@@H](CCC(=O)O)CC(=O)N[C@@H](CC(C)C)C(=O)N[C@@H](Cc1c[nH]c2ccccc12)C(=O)N[C@@H](CC(C)C)C(=O)NCC(=O)N[C@@H](CCC(N)=O)C(=O)N[C@@H](CC(N)=O)C(=O)N[C@@H](CCC(=O)O)C(=O)N[C@@H](Cc1ccccc1)C(=O)N[C@@H](CC(=O)O)C(=O)N[C@@H](Cc1ccccc1)C(=O)N[C@@H](CCSC)C(N)=O)[C@@H](C)CC)[C@@H](C)CC)C(C)C)C(C)C)[C@@H](C)CC)[C@@H](C)O [3a] (Ac-IDTDFIDEEVLMSLVIEMGL[β3hD]RIK[β3hE]LP[β3hE]LWLGQNEFDFM-NH2)	0.675 µM	> 0.6 µM	–	–
Ac-IDTDFIDEEVLMSLVIEMGLDRIKELPELWLGQNEFDFM-NH2 [CITED2_218–256]	0.011 µM	–	–	0.002 ± 0.0009 µM
CC[C@H](C)[C@H](NC(C)=O)C(=O)N[C@@H](CC(=O)O)C(=O)N[C@H](C(=O)N[C@@H](CC(=O)O)C(=O)N[C@@H](Cc1ccccc1)C(=O)N[C@H](C(=O)N[C@@H](CC(=O)O)C(=O)N[C@@H](CCC(=O)O)C(=O)N[C@@H](CCC(=O)O)CC(=O)N[C@H](C(=O)N[C@@H](CC(C)C)C(=O)N[C@@H](CCSC)C(=O)N[C@@H](CO)CC(=O)N[C@@H](CC(C)C)C(=O)N[C@H](C(=O)N[C@H](C(=O)N[C@@H](CCC(=O)O)CC(=O)N[C@@H](CCSC)C(=O)NCC(=O)N[C@@H](CC(C)C)C(=O)N[C@@H](CC(=O)O)C(=O)N[C@@H](CCCNC(=N)N)C(=O)N[C@H](C(=O)N[C@@H](CCCCN)C(=O)N[C@@H](CCC(=O)O)C(=O)N[C@@H](CC(C)C)C(=O)N1CCC[C@H]1C(=O)N[C@@H](CCC(=O)O)C(=O)N[C@@H](CC(C)C)C(=O)N[C@@H](Cc1c[nH]c2ccccc12)C(=O)N[C@@H](CC(C)C)C(=O)NCC(=O)N[C@@H](CCC(N)=O)C(=O)N[C@@H](CC(N)=O)C(=O)N[C@@H](CCC(=O)O)C(=O)N[C@@H](Cc1ccccc1)C(=O)N[C@@H](CC(=O)O)C(=O)N[C@@H](Cc1ccccc1)C(=O)N[C@@H](CCSC)C(N)=O)[C@@H](C)CC)[C@@H](C)CC)C(C)C)C(C)C)[C@@H](C)CC)[C@@H](C)O [compound 2] (Ac-IDTDFIDE[β3hE]VLM[β3hS]LVI[β3hE]MGLDRIKELPELWLGQNEFDFM-NH2)	0.016 µM	0.0049 ± 0.0008 µM	–	–
